Measured values: article PMC5901969 (Pharmaceutical research, 2017)
Where two headings read alike, the source gives them in different places.

Assays:
[1] = system: HIV-infected (U1) cell line; assay: Intracellular DRV concentration-time profile in HIV-infected monocytic; type: in vitro ADME; details: U1 cells
[2] = system: monocytes; details: absence of cobicistat; cited from earlier work
[3] = system: HIV; type: cell-based; details: U1 cells, 24 h, p24
[4] = target: T1, CYP3A4 (Homo sapiens, UniProt P08684); details: read-out: apparent Km; ethanol as CYP3A4 substrate; cited from earlier work
[5] = oral 100 mg QD; cited from earlier work
[6] = target: T1, CYP3A4; details: cited from earlier work
[7] = 10 mM and 50 mM ethanol (data not shown)

T1 sequence (P08684 whole entry): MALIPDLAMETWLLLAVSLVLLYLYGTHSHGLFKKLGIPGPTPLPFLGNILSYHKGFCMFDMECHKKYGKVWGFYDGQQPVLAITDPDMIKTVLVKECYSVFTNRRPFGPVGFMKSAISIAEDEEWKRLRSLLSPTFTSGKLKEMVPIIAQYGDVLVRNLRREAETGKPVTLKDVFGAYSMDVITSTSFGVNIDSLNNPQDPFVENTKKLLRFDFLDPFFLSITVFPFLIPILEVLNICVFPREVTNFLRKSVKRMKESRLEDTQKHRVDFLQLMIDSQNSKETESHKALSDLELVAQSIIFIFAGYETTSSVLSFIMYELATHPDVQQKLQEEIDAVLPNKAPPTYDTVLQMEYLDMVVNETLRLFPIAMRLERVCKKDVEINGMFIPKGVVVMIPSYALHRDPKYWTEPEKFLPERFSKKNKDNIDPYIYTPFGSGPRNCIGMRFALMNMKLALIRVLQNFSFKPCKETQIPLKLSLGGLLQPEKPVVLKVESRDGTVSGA

## CC(C)CN(C[C@@H](O)[C@H](Cc1ccccc1)NC(=O)O[C@H]1CO[C@H]2OCC[C@H]21)S(=O)(=O)c1ccc(N)cc1 [DRV, Darunavir]
[1]; 3 μg/ml DRV, 20 mM ethanol, compared to DRV alone
  decrease in intracellular AUCtot of DRV: 11%
[1]; [7]
  intracellular DRV AUCtot, effect of ethanol: no significant change
  intracellular DRV Cmax, effect of ethanol: no significant change
[1]; 20 mM ethanol
  intracellular Cmax of DRV, effect of ethanol: without altering

## COc1cc2c(cc1Cc1cccc(Cl)c1F)c(=O)c(C(=O)O)cn2[C@H](CO)C(C)C [EVG, Elvitegravir]
[2]
  intracellular AUCtot, effect of ethanol exposure: decreases
  intracellular Cmax, effect of ethanol exposure: decreases

## CCO [Ethanol]
[3]; 10 mM ethanol alone
  increase in HIV replication compared to control: 89%
[3]; 20 mM ethanol alone
  increase in HIV replication compared to control: 20.6%
[3]; 50 mM ethanol alone
  increase in HIV replication compared to control: 41%
[4]
  Km: 10 mM

## CC(C)c1nc(CN(C)C(=O)N[C@H](C(=O)N[C@@H](Cc2ccccc2)C[C@H](O)[C@H](Cc2ccccc2)NC(=O)OCc2cncs2)C(C)C)cs1 [RTV, Ritonavir]
[5]
  Cmax: 1000 ng/mL

## Cc1c(O)cccc1C(=O)N[C@@H](CSc1ccccc1)[C@H](O)CN1C[C@H]2CCCC[C@H]2C[C@H]1C(=O)NC(C)(C)C [nelfinavir]
[6]
  decrease in IC50 in response to ethanol exposure: 3 fold
